# Measured values published in patent US7981903B2, “2-[2-{phenylamino}-1H-pyrrolo[2,3-D]pyrimidin-4-yl)amino] benzamide derivatives as IGF-1R inhibitors for the treatment of cancer” (GlaxoSmithKline LLC, priority 2007, dated 2011).
# How the values were obtained:
# [1] = biological target: T1, NIH-3T3 cells overexpressing human IGF-1R (Homo sapiens, UniProt P08069); assay: IGF-1R cellular autophosphorylation (DELFIA); format: cell-based
# T1 construct: expressed in transfected cells; host or cells: NIH-3T3 (mouse fibroblasts)
# T1 sequence (P08069 31-1367): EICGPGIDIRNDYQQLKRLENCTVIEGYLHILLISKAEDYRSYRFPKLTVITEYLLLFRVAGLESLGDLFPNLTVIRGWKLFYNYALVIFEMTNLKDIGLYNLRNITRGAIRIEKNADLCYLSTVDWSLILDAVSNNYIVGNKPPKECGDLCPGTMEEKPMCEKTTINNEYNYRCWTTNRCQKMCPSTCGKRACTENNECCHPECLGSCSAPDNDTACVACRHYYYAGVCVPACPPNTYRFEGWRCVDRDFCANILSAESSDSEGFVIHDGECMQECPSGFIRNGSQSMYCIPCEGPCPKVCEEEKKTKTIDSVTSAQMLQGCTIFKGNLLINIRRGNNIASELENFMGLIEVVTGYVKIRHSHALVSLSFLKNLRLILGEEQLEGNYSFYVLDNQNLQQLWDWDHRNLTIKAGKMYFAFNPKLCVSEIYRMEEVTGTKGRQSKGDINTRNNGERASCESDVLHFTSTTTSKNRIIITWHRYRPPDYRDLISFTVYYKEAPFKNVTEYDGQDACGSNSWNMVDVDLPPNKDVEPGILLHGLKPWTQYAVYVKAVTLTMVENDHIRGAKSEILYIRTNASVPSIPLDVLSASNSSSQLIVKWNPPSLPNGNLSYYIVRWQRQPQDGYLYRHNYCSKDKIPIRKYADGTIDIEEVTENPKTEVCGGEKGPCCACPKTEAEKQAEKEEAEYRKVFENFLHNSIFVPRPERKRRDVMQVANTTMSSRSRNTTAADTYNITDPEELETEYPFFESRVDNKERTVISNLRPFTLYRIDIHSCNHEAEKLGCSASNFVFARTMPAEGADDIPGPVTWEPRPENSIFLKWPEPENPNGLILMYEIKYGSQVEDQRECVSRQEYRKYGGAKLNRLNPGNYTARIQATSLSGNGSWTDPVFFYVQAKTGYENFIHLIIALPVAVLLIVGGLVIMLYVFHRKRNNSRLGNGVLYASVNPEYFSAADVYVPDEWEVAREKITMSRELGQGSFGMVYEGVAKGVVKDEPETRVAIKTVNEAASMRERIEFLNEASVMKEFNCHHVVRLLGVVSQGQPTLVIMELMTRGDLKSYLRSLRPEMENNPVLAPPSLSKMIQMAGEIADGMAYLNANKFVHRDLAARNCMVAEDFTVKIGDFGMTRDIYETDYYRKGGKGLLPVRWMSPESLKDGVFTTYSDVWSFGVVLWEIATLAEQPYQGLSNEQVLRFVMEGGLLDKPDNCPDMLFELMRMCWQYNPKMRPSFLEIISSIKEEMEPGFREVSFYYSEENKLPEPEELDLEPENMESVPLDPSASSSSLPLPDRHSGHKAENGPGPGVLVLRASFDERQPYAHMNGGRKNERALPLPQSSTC
# Description: (§1) NIH-3T3 cells overexpressing human IGF-1R or IR were plated in 96-well plates (10,000 cells/well) in culture media containing 10% fetal bovine serum and incubated at 37° C. in a 5% CO2 incubator. Twenty four hours post-plating, cells were treated with different concentrations of test compounds ranging from 30 uM to 1.5 nM. Two hours after compound addition, cells were stimulated with either human IGF-1 (30 ng/ml) or insulin (3 ug/ml) for 15 minutes. Cell lysates are analyzed for phosphorylated receptors using dissociation enhanced lanthanide fluor-immuno assay (DELFIA) with anti-IGF-1R (MAB391, R&D Systems, Minneapolis, Minn.) or anti-IRβ (sc-711, Santa Cruz Biotechnology, Santa Cruz, Calif.) capture antibody and europium-labeled anti-pTyr antibody (Eu-N1 PT66, Perkin Elmer, Waltham, Mass.) for detection. The fluorescence signal for cells treated with compounds was expressed as percent relative to 100% stimulation (IGF-1 or insulin stimulated signal).
# ALK = ALK (Homo sapiens, UniProt Q9UM73); assay: ALK enzyme assay (HTRF); format: biochemical; conditions: 0.25 nM ALK, 15.0 μM ATP, values given as pIC50 category
# Chain of ALK (Q9UM73 19-1620): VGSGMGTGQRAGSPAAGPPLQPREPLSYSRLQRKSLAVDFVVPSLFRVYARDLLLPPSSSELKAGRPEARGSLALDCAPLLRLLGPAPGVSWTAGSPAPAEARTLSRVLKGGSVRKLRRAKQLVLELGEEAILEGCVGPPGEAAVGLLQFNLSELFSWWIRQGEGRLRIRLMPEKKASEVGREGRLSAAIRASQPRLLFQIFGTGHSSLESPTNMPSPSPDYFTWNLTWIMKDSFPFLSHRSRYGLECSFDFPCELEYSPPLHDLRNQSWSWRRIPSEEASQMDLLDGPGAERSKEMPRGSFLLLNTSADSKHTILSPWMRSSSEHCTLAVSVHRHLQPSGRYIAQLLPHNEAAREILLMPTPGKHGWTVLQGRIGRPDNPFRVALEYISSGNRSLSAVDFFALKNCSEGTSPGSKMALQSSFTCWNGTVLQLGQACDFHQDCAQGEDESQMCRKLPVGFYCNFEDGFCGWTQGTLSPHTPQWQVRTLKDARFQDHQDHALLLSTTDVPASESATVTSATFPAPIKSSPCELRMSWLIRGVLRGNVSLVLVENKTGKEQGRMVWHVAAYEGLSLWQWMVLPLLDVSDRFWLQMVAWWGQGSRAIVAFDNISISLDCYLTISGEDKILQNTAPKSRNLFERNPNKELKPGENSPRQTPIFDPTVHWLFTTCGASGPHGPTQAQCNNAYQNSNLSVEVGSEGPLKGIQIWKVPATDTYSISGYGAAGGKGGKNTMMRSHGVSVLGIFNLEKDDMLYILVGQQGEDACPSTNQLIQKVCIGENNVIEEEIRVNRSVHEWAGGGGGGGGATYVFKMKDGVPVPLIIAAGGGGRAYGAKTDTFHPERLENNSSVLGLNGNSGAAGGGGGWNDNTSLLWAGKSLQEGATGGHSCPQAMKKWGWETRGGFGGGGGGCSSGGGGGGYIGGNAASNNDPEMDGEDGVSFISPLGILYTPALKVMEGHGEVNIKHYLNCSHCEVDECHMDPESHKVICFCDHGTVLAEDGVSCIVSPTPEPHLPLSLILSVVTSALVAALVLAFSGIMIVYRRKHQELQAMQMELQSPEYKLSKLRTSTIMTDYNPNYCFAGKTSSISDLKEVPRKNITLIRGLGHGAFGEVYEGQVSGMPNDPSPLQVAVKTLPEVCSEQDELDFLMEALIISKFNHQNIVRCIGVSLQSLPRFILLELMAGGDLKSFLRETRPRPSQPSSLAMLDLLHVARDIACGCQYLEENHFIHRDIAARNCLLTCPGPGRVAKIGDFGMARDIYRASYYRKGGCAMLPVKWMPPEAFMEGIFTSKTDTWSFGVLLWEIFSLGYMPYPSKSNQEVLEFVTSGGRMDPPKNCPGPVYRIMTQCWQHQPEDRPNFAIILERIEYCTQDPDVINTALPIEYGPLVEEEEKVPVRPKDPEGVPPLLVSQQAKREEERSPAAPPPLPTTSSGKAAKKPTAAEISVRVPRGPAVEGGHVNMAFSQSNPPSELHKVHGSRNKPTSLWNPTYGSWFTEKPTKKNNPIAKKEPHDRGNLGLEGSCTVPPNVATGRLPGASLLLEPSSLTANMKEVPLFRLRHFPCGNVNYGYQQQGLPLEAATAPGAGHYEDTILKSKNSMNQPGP
# Outline: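 Final compound range 0.00017 to 10 μM (twelve 1:3 dilutions). Kinase reaction with ATP and biotinylated synthetic peptide runs 120 min at 20° C, stopped with EDTA; phosphotyrosine detected by HTRF after 60 min. Inhibition referenced to DMSO (1%) and EDTA (0.1 M) controls, curve-fitted.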
# human IGF1R (hIGF1R) = biological target: T2, human IGF1R (hIGF1R) (Homo sapiens, UniProt P08069); assay: TR-FRET kinase assay of purified hIGF1R; format: biochemical; conditions: activated hIGF1R 0.5 nM, 10 μM ATP, values given as pIC50 category, read-out: IGF-1R pIC50 (converted)
# T2 construct: containing amino acid residues 957-1367 of human IGF1R; made in house; host or cells: Sf9 cells (baculovirus)
# T2 sequence (P08069 957-1367): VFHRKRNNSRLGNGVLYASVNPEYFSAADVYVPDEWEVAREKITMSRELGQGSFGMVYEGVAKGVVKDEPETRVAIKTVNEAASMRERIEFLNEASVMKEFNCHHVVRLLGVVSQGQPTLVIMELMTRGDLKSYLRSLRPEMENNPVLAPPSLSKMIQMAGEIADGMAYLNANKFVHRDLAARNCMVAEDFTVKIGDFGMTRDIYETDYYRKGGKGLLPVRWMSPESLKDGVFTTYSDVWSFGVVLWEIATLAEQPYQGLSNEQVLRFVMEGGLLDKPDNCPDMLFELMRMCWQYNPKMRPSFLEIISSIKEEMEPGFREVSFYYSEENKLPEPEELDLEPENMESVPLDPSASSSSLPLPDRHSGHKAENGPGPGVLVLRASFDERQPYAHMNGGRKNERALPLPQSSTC
# Colo205 = assay: Inhibition of cell proliferation (CellTiter-Glo or InCell analyzer), Colo205; format: cell-based; conditions: Homo sapiens, COLO 205, 72 h / 3 days, values given as IC50 category
# Description: Cell proliferation was measured by either CellTiter-Glo (measures cellular ATP level as a surrogate for total cell number) or by InCell analyzer (counts number of nuclei as a measure of cell number).
# For CellTiter-Glo assay, exponentially growing cell lines of different tumor origins, cultured in appropriate media containing 10% fetal bovine serum at 37° C. in a 5% CO2 incubator, were plated at low density (less than 2000cells/well) in 96-well plates. Twenty four hours post-plating, cells were treated with different concentrations of test compounds ranging from 30 uM to 1.5 nM. Several wells were left untreated as a control. Seventy two hours post-treatment, cell numbers were determined using 50-100 ul per well of CellTiter-Glo (Promega #G7573). Plates were incubated at 37° C. for 30 minutes and the chemiluminescent signal was read on the Victor V or Envison 2100 reader.
# For InCell Analyser assay, various cell lines of different tumor origins were grown to 70-80% confluency in appropriate culture media containing 10% fetal bovine serum at 37° C. in a 5% CO2 incubator. On day −1, cells were seeded at 2 densities in 384-well plates and incubated at 37° C. overnight. Stock compound plates were prepared in advance which contained dimethyl sulfoxide (DMSO) alone and a 9-point half-log decreasing dose range of the compound in DMSO. The compound plates were stored at −80° C. and each plate was only thawed once and used. On day 0, the main assay plates received compound or DMSO via a sonic delivery system (ECHO). The highest final concentration of compound of the dose range in the culture plates was 10 uM. These plates were cultured at 37° C. for 3 days. […] On day 3, the compound treated plates were stained and fixed to measure proliferation, apoptosis, and mitotic index using an InCelL1000 analyser. A nuclear stain was used to identify cells in the wells. By counting the number of nuclei, the proliferation index of compound treated groups were calculated as a percentage relative to the DMSO control, which was set to 100%. The IC50 values were calculated using model 205 in ExcelFit.
# IC50 (nM) values for compounds of select examples were categorized by relative inhibition of cell proliferation.
# [2] = biological target: T3, NIH-3T3 cells overexpressing human IR (Homo sapiens, UniProt P06213); assay: IR cellular autophosphorylation (DELFIA); format: cell-based; conditions: 2 h compound, insulin 3 ug/ml for 15 minutes, IC50 category
# T3 construct: expressed in transfected cells; host or cells: NIH-3T3 (mouse fibroblasts)
# T3 sequence (P06213 28-1382): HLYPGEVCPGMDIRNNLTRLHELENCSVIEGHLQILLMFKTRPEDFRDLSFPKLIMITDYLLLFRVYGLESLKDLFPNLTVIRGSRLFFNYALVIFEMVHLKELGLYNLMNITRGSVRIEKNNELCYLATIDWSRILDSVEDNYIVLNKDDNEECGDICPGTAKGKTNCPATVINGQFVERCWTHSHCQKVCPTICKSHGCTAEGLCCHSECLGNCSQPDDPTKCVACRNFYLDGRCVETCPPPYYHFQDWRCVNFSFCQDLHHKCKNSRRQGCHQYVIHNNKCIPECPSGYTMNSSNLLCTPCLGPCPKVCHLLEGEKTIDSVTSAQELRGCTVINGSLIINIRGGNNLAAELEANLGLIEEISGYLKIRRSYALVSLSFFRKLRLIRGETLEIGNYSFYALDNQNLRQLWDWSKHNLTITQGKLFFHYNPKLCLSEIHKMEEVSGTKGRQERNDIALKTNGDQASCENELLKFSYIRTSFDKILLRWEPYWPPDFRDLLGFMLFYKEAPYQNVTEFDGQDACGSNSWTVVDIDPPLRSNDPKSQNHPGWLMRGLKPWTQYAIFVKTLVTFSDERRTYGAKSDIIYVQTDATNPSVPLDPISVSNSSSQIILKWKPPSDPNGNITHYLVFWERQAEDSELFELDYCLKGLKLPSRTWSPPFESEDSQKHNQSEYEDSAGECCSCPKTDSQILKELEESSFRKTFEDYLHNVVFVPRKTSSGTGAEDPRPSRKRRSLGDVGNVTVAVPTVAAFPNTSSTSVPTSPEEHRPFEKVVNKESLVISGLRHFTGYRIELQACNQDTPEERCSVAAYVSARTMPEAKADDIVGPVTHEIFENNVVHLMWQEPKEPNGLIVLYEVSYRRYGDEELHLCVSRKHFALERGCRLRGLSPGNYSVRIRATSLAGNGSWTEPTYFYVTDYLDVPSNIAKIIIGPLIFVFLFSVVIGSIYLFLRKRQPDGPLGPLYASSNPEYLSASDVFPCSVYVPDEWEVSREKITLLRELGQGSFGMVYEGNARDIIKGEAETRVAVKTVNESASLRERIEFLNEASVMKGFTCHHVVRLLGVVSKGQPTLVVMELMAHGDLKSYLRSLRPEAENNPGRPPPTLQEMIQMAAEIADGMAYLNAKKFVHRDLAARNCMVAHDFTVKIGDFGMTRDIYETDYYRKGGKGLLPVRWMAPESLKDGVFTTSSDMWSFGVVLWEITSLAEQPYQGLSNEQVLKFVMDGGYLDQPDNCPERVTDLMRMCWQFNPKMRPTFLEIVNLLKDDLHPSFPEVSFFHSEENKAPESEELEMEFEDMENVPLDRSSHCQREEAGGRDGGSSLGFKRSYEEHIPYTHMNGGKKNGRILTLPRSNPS
# Description: as §1
# human IR (hIR) = biological target: T4, human IR (hIR) (Homo sapiens, UniProt P06213); assay: TR-FRET kinase assay of purified hIR; format: biochemical; conditions: activated hIR 0.5 nM, 10 μM ATP, values given as pIC50 category
# T4 construct: containing amino acid residues 979-1382 of human IR; made in house; host or cells: Sf9 cells (baculovirus), same process as hIGF1R
# T4 sequence (P06213 979-1382): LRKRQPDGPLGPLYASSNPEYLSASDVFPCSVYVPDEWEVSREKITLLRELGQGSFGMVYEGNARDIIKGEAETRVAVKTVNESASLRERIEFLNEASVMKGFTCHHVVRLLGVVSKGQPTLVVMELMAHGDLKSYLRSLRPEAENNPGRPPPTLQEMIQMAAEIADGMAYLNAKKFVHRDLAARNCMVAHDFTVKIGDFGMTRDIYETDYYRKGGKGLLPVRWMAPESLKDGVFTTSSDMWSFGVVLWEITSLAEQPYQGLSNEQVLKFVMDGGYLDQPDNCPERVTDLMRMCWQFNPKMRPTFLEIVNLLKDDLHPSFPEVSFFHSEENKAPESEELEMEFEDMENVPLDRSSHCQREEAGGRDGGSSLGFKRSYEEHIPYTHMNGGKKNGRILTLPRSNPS
IC50 [1],IC50 (ALK),IC50 (human IGF1R (hIGF1R)),IC50 (Colo205),IC50 [2],IC50 (human IR (hIR)),Compound
< 100 nM,1.26 to 3.98 nM,1.26 to 3.98 nM,< 250 nM,–,–,"COc1cc(N2CCN(C(C)C)CC2)c(OC)cc1Nc1nc(Nc2cccc(F)c2C(N)=O)c2cc[nH]c2n1 [Example 47, 2-fluoro-6-[(2-{[4-[4-(1-methylethyl)-1-piperazinyl]-2,5-bis(methyloxy)phenyl]amino}-1H-pyrrolo[2,3-d]pyrimidin-4-yl)amino]benzamide]"
100 to 500 nM,0.251 to 1 nM,–,–,100 to 500 nM,0.251 to 1 nM,"COc1cc(C2=CCCN(C)C2)ccc1Nc1nc(Nc2ccc(F)cc2C(N)=O)c2cc[nH]c2n1 [Example 55, 5-fluoro-2-[(2-{[2-(methyloxy)-4-(1-methyl-1,2,5,6-tetrahydro-3-pyridinyl)phenyl]amino}-1H-pyrrolo[2,3-d]pyrimidin-4-yl)amino]benzamide]"
< 100 nM,1.26 to 3.98 nM,1.26 to 3.98 nM,250 to 1000 nM,–,–,"COc1ccc(OCCCN(C)C)cc1Nc1nc(Nc2ccc(F)cc2C(N)=O)c2cc[nH]c2n1 [Example 64, 2-[(2-{[5-{[3-(dimethylamino)propyl]oxy}-2-(methyloxy)phenyl]amino}-1H-pyrrolo[2,3-d]pyrimidin-4-yl)amino]-5-fluorobenzamide]"
–,5.01 to 200 nM,1.26 to 3.98 nM,–,> 500 nM,0.251 to 1 nM,"Cc1ccc(NC(=O)CN(C)C)cc1Nc1nc(Nc2cc3ccccc3cc2C(N)=O)c2cc[nH]c2n1 [Example 30, 3-{[2-({5-[(N,N-dimethylglycyl)amino]-2-methylphenyl}amino)-1H-pyrrolo[2,3-d]pyrimidin-4-yl]amino}-2-naphthalenecarboxamide]"
100 to 500 nM,0.251 to 1 nM,1.26 to 3.98 nM,–,–,1.26 to 3.98 nM,"CCCN1CCC=C(c2ccc(Nc3nc(Nc4ccc(OC)cc4C(N)=O)c4cc[nH]c4n3)c(OC)c2)C1 [Example 38, 5-(methyloxy)-2-[(2-{[2-(methyloxy)-4-(1-propyl-1,2,5,6-tetrahydro-3-pyridinyl)phenyl]amino}-1H-pyrrolo[2,3-d]pyrimidin-4-yl)amino]benzamide]"
< 100 nM,0.251 to 1 nM,0.251 to 1 nM,–,–,0.251 to 1 nM,"COc1cc(C2=CCCN(C(C)C)C2)ccc1Nc1nc(Nc2cc(F)c(F)cc2C(N)=O)c2cc[nH]c2n1 [Example 96, 4,5-difluoro-2-[(2-{[4-[1-(1-methylethyl)-1,2,5,6-tetrahydro-3-pyridinyl]-2-(methyloxy)phenyl]amino}-1H-pyrrolo[2,3-d]pyrimidin-4-yl)amino]benzamide]"
> 500 nM,5.01 to 200 nM,1.26 to 3.98 nM,–,–,1.26 to 3.98 nM,Cc1ccc(NC(=O)CN(C)C)cc1Nc1nc(Nc2cc(Cl)ccc2C(N)=O)c2cc[nH]c2n1 [Example 111]
< 100 nM,–,0.251 to 1 nM,–,< 100 nM,0.251 to 1 nM,"CNC(=O)c1c(F)cccc1Nc1nc(Nc2cc3c(cc2OC)CCCN3C(=O)CN(C)C)nc2[nH]cc(C)c12 [Example 260, 2-[(2-{[1-(N,N-dimethylglycyl)-6-(methyloxy)-1,2,3,4-tetrahydro-7-quinolinyl]amino}-5-methyl-1H-pyrrolo[2,3-d]pyrimidin-4-yl)amino]-6-fluoro-N-methylbenzamide]"
100 to 500 nM,–,0.251 to 1 nM,–,< 100 nM,0.251 to 1 nM,"COc1cc(N2CCN(C(C)C)CC2)ccc1Nc1nc(Nc2cc(F)ccc2C(N)=O)c2cc[nH]c2n1 [Example 79, 4-fluoro-2-[(2-{[4-[4-(1-methylethyl)-1-piperazinyl]-2-(methyloxy)phenyl]amino}-1H-pyrrolo[2,3-d]pyrimidin-4-yl)amino]benzamide]"
100 to 500 nM,1.26 to 3.98 nM,1.26 to 3.98 nM,250 to 1000 nM,–,–,"CCCN1CCC=C(c2ccc(Nc3nc(Nc4cc(F)ccc4C(=O)NCC(N)=O)c4cc[nH]c4n3)c(OC)c2)C1 [Example 67, N-(2-amino-2-oxoethyl)-4-fluoro-2-[(2-{[2-(methyloxy)-4-(1-propyl-1,2,5,6-tetrahydro-3-pyridinyl)phenyl]amino}-1H-pyrrolo[2,3-d]pyrimidin-4-yl)amino]benzamide]"
100 to 500 nM,0.251 to 1 nM,1.26 to 3.98 nM,–,100 to 500 nM,–,"CCCN1CCCC(c2ccc(Nc3nc(Nc4ccccc4C(=O)NC)c4cc[nH]c4n3)c(OC)c2)C1 (centres unmarked) [Example 24, N-methyl-2-[(2-{[2-(methyloxy)-4-(1-propyl-3-piperidinyl)phenyl]amino}-1H-pyrrolo[2,3-d]pyrimidin-4-yl)amino]benzamide]"
100 to 500 nM,1.26 to 3.98 nM,1.26 to 3.98 nM,–,–,1.26 to 3.98 nM,"Cc1cc(N2CCOCC2)ccc1Nc1nc(Nc2ccccc2C(N)=O)c2cc[nH]c2n1 [Example 11, 2-[(2-{[2-methyl-4-(4-morpholinyl)phenyl]amino}-1H-pyrrolo[2,3-d]pyrimidin-4-yl)amino]benzamide]"
< 100 nM,0.251 to 1 nM,0.251 to 1 nM,–,–,0.251 to 1 nM,"COc1cc(C2CCCN(C)C2)ccc1Nc1nc(Nc2ccccc2C(N)=O)c2cc[nH]c2n1 (centres unmarked) [Example 5, 2-[(2-{[2-(methyloxy)-4-(1-methyl-3-piperidinyl)phenyl]amino}-1H-pyrrolo[2,3-d]pyrimidin-4-yl)amino]benzamide]"
< 100 nM,–,0.251 to 1 nM,–,< 100 nM,0.251 to 1 nM,"COc1cc2c(cc1Nc1nc(Nc3cccc(F)c3C(N)=O)c3c(C)c[nH]c3n1)N(C(=O)CN(C)C)CCC2 [Example 261, 2-[(2-{[1-(N,N-dimethylglycyl)-6-(methyloxy)-1,2,3,4-tetrahydro-7-quinolinyl]amino}-5-methyl-1H-pyrrolo[2,3-d]pyrimidin-4-yl)amino]-6-fluorobenzamide]"
100 to 500 nM,0.251 to 1 nM,0.251 to 1 nM,–,–,0.251 to 1 nM,"CCCN1CCC=C(c2ccc(Nc3nc(Nc4cc(F)c(F)cc4C(N)=O)c4cc[nH]c4n3)c(OC)c2)C1 [Example 95, 4,5-difluoro-2-[(2-{[2-(methyloxy)-4-(1-propyl-1,2,5,6-tetrahydro-3-pyridinyl)phenyl]amino}-1H-pyrrolo[2,3-d]pyrimidin-4-yl)amino]benzamide]"
100 to 500 nM,1.26 to 3.98 nM,0.251 to 1 nM,–,–,0.251 to 1 nM,"CN(C)CC(=O)Nc1ccc(OC(F)(F)F)c(Nc2nc(Nc3ccc(F)cc3C(N)=O)c3cc[nH]c3n2)c1 [Example 63, 2-{[2-({5-[(N,N-dimethylglycyl)amino]-2-[(trifluoromethyl)oxy]phenyl}amino)-1H-pyrrolo[2,3-d]pyrimidin-4-yl]amino}-5-fluorobenzamide]"
> 500 nM,0.251 to 1 nM,1.26 to 3.98 nM,–,–,1.26 to 3.98 nM,"CCCN1CCC=C(c2ccc(Nc3nc(Nc4ccc(C)cc4C(N)=O)c4cc[nH]c4n3)c(OC)c2)C1 [Example 33, 5-methyl-2-[(2-{[2-(methyloxy)-4-(1-propyl-1,2,5,6-tetrahydro-3-pyridinyl)phenyl]amino}-1H-pyrrolo[2,3-d]pyrimidin-4-yl)amino]benzamide]"
